According to BigSolDB 2.1:

NC[C@H]1O[C@H](O[C@H]2[C@H](O)[C@@H](O[C@H]3O[C@H](CO)[C@@H](O)[C@H](N)[C@H]3O)[C@H](N)C[C@@H]2N)[C@H](N)C[C@@H]1O
solubility (mole fraction) (in DMF, 293.15 K): 0.000144
solubility (mole fraction) (in DMF, 298.15 K): 0.000181
solubility (mole fraction) (in DMF, 303.15 K): 0.000249
solubility (mole fraction) (in DMF, 308.15 K): 0.000394
solubility (mole fraction) (in DMF, 313.15 K): 0.000663
solubility (mole fraction) (in DMF, 318.15 K): 0.000942
solubility (mole fraction) (in DMSO, 294.15 K): 0.0124
solubility (mole fraction) (in DMSO, 298.15 K): 0.014
solubility (mole fraction) (in DMSO, 303.15 K): 0.018
solubility (mole fraction) (in DMSO, 308.15 K): 0.0236
solubility (mole fraction) (in DMSO, 313.15 K): 0.0282
solubility (mole fraction) (in DMSO, 318.15 K): 0.0351
solubility (mole fraction) (in ethanol, 283.15 K): 0.000436
solubility (mole fraction) (in ethanol, 288.15 K): 0.000556
solubility (mole fraction) (in ethanol, 293.15 K): 0.000708
solubility (mole fraction) (in ethanol, 298.15 K): 0.00114
solubility (mole fraction) (in ethanol, 303.15 K): 0.00191
solubility (mole fraction) (in ethanol, 308.15 K): 0.00243
solubility (mole fraction) (in methanol, 288.15 K): 0.000129
solubility (mole fraction) (in methanol, 293.15 K): 0.000133
solubility (mole fraction) (in methanol, 298.15 K): 0.000189
solubility (mole fraction) (in methanol, 303.15 K): 0.000284
solubility (mole fraction) (in methanol, 308.15 K): 0.000433
solubility (mole fraction) (in methanol, 313.15 K): 0.000635
